# Measured values from US9062059B2, “Pyrimidine PDE10 inhibitors” (Merck Sharp & Dohme Corp., priority 2011, dated 2015).
# Biological target: human PDE10A2 (Homo sapiens (Human), UniProt Q9Y233)
# Experiment: PDE10 fluorescence polarization (IMAP FP) inhibition assay
# Assay type: biochemical
# Settings: read-out: PDE10A Ki
# Method: The activity of the compounds in accordance with the present invention as PDE10 inhibitors may be readily determined without undue experimentation using a fluorescence polarization (FP) methodology that is well known in the art (Huang, W., et al., J. Biomol Screen, 2002, 7: 215).
# In a typical experiment the PDE10 inhibitory activity of the compounds of the present invention was determined in accordance with the following experimental method. PDE10A2 was amplified from human fetal brain cDNA (Clontech, Mountain View, Calif.) using a forward primer corresponding to nucleotides 56-77 of human PDE10A2 (Accession No. AF127480, Genbank Identifier 4894716), containing a Kozak consensus sequence, and a reverse primer corresponding to nucleotides 2406-2413 of human PDE10A2 (Accession No. AF127480, Genbank Identifier 4894716). Amplification with Easy-A polymerase (Stratagene, La Jolla, Calif.) was 95° C. for 2 minutes followed by thirty three cycles of 95° C. for 40 seconds, 55° C. for 30 seconds, and 72° C. for 2 minutes 48 seconds. Final extension was 72° C. for 7 minutes. The PCR product was TA cloned into pcDNA3.2-TOPO (Invitrogen, Carlsbad, Calif.) according to standard protocol. AD293 cells with 70-80% confluency were transiently transfected with human PDE10A2/pcDNA3.2-TOPO using Lipofectamine 2000 according to manufacturer specifications (Invitrogen, Carlsbad, Calif.). Cells were harvested 48 hours post-transfection and lysed by sonication (setting 3, 10×5 sec pulses) in a buffer containing 20 mM HEPES, 1 mM EDTA and protease inhibitor cocktail (Roche). Lysate was collected by centrifugation at 75,000×g for 20 minutes. Supernatant containing the cytoplasmic fraction was used for evaluation of PDE10A2 activity. The fluorescence polarization assay for cyclic nucleotide phosphodiesterases was performed using an IMAP® FP kit supplied by Molecular Devices, Sunnyvale, Calif. (product # R8139). IMAP® technology has been applied previously to phosphodiesterase assays (Huang, W., et al., J. Biomol Screen, 2002, 7: 215). Assays were performed at room temperature in 384-well microtiter plates with an incubation volume of 20.2 μL. Solutions of test compounds were prepared in DMSO and serially diluted with DMSO to yield 8 μL of each of 10 solutions differing by 3-fold in concentration, at 32 serial dilutions per plate. 100% inhibition is determined using a known PDE10 inhibitor, which can be any compound that is present at 5,000 times its Ki value in the assay described as follows, such as papaverine (see Siuciak, et al. Neuropharmacology (2006) 51:386-396; Becker, et al. Behav Brain Res (2008) 186(2):155-60; Threlfell, et al., J Pharmacol Exp Ther (2009) 328(3):785-795), 2-{4-[pyridin-4-yl-1-(2,2,2-trifluoroethyl)-1H-pyrazol-3-yl]phenoxymethyl}quinoline succinic acid or 2-[4-(1-methyl-4-pyridin-4-yl-1H-pyrazol-3-yl)-phenoxymethyl]quinoline succinic acid (see Schmidt, et al. J Pharmacol Exp Ther (2008) 325:681-690; Threlfell, et al., J Pharmacol Exp Ther (2009) 328(3): 785-795). 0% of inhibition is determined by using DMSO (1% final concentrations).
# A Labcyte Echo 555 (Labcyte, Sunnyvale, Calif.) is used to dispense 200 nL from each well of the titration plate to the 384 well assay plate. A solution of enzyme (1/1600 dilution from aliquots; sufficient to produce 20% substrate conversion) and a separate solution of FAM-labeled cAMP PDE from Molecular Devices (product # R7506), at a final concentration of 50 nM are made in the assay buffer (10 mM Tris HCl, pH 7.2, 10 mM MgCl2, 0.05% NaN3 0.01% Tween-20, and 1 mM DTT). The enzyme and the substrate are then added to the assay plates in two consecutive additions of 10 μL, and then shaken to mix. The reaction is allowed to proceed at room temperature for 30 minutes. A binding solution is then made from the kit components, comprised of 80% Solution A, 20% Solution B and binding reagent at a volume of 1/600 the total binding solution.
# Chain of human PDE10A2 (Q9Y233 267-1055): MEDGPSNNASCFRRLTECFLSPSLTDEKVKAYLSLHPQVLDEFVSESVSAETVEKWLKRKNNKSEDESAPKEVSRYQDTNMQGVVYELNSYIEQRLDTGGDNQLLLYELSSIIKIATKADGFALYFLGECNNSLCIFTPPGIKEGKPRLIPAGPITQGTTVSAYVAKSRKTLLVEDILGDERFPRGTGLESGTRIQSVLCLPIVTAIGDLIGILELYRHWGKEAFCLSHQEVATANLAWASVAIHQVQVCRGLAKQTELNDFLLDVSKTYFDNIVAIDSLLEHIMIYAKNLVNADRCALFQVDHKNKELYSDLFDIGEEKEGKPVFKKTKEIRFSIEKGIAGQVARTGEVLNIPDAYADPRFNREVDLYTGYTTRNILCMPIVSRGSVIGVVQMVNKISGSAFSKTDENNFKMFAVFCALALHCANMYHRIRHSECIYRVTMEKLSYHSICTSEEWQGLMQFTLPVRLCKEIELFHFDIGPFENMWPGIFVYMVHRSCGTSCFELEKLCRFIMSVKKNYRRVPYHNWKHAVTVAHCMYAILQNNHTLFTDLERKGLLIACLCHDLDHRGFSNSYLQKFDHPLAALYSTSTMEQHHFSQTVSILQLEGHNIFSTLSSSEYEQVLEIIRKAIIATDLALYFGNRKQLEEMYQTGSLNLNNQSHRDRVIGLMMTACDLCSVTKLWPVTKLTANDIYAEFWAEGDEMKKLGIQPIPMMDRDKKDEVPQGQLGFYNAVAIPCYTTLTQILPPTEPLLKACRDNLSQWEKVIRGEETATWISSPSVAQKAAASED
row,SMILES,Ki [nM]
1,"Cc1ccc([C@H]2C[C@@H]2COc2nc(C)nc(NCc3nnc(C)s3)c2Cl)nc1 [Compound 2-58, S,S-5-chloro-2-methyl-6-{[(1S,2S)-2-(5-methylpyridin-2-yl)cyclopropyl]methoxy}-N-[(5-methyl-1,3,4-thiadiazol-2-yl)methyl]pyrimidin-4-amine]",3.9
2,"Cc1nc(C)c(CNc2cc(OC[C@H]3C[C@@H]3c3ccccn3)nc(C3CC3)n2)s1 [Compound 3-11, S,S-2-cyclopropyl-N-[(2,4-dimethyl-1,3-thiazol-5-yl)methyl]-6-[(2-pyridin-2-ylcyclopropyl)methoxy] pyrimidin-4-amine]",1.6
3,"Cc1nc(NCc2cnn(C)c2)cc(OC[C@H]2C[C@@H]2c2ccc(C(F)F)cn2)n1 (stereo in doubt) [Compound 2-17, 6-({2-[5-(difluoromethyl)pyridin-2-yl]cyclopropyl}methoxy)-2-methyl-N-[(1-methyl-1H-pyrazol-4-yl)methyl]pyrimidin-4-amine]",3.5
4,"Cc1ccc([C@H]2C[C@@H]2COc2nc(N)nc(NCc3nnc(C)s3)c2C#N)nc1 [Compound 16-4, 2-amino-4-{[(1S,2S)-2-(5-methylpyridin-2-yl)cyclopropyl]methoxy}-6-{[(5-methyl-1,3,4-thiadiazol-2-yl)methyl]amino}pyrimidine-5-carbonitrile]",1.6
5,"Cc1nc(NCc2nnc(C)s2)cc(OC[C@H]2C[C@@H]2c2ccc3ncccc3n2)n1 [Compound 2-27, S,S-2-methyl-N-[(5-methyl-1,3,4-thiadiazol-2-yl)methyl]-6-{[2-(1,5-naphthyridin-2-yl)cyclopropyl]methoxy} pyrimidin-4-amine]",0.02
6,"Cc1nc(NCc2sc(C)nc2C)c(C)c(OC[C@H]2C[C@@H]2c2ccccn2)n1 [Compound 2-47, S,S-N-[(2,4-dimethyl-1,3-thiazol-5-yl)methyl]-2,5-dimethyl-6-[(2-pyridin-2-ylcyclopropyl)methoxy] pyrimidin-4-amine]",41.7
7,"Cc1nnc(CNc2cc(OC[C@H]3C[C@@H]3c3ccccn3)nc(CF)n2)s1 [Compound 3-8, S,S-2-(fluoromethyl)-N-[(5-methyl-1,3,4-thiadiazol-2-yl)methyl]-6-[(2-pyridin-2-ylcyclopropyl)methoxy] pyrimidin-4-amine]",1.1
8,"Cc1nc(NCc2nnc(C)s2)cc(OC[C@H]2C[C@@H]2c2ccc(-c3cccnc3)cn2)n1 (stereo in doubt) [Compound 8-8, 6-{[2-(3,3′-bipyridin-6-yl)cyclopropyl]methoxy}-2-methyl-N-[(5-methyl-1,3,4-thiadiazol-2-yl)methyl] pyrimidin-4-amine]",1
9,"Cc1nc(NCc2nnc(C)s2)cc(OC[C@H]2C[C@@H]2c2ccc(C3CC3)cn2)n1 (stereo in doubt) [Compound 9-2, 6-{[2-(5-cyclopropylpyridin-2-yl)cyclopropyl]methoxy}-2-methyl-N-[(5-methyl-1,3,4-thiadiazol-2-yl)methyl]pyrimidin-4-amine]",0.08
10,"Cc1nc(NCc2ccncc2C)cc(OCC2CC2c2ccccn2)n1 (stereo not shown) [Compound 14-3, 2-methyl-N-((3-methylpyridin-4-yl)methyl)-6-((2-(pyridin-2-yl)cyclopropyl)methoxy)pyrimidin-4-amine]",5.3
11,"Cc1cc(CNc2cc(OC[C@H]3C[C@@H]3c3ccc4ccccc4n3)nc(C)n2)n(C)n1 [Compound 2-4, S,S-N-[(1,3-dimethyl-1H-pyrazol-5-yl)methyl]-2-methyl-6-[(2-quinolin-2-ylcyclopropyl)methoxy] pyrimidin-4-amine]",0.6
12,"Cc1nnc(CNc2nc(N)nc(OC[C@H]3C[C@@H]3c3ccc4c(n3)CCC4)c2F)s1 [Compound 3-25, S,S-6-(((1S,2S)-2-(6,7-dihydro-5H-cyclopenta[b]pyridin-2-yl)cyclopropyl)methoxy)-5-fluoro-N4-((5-methyl-1,3,4-thiadiazol-2-yl)methyl)pyrimidine-2,4-diamine]",0.09
13,"COc1ccc([C@H]2C[C@@H]2COc2cc(NCc3nnc(C)s3)nc(N)n2)nc1 [Compound 2-53, S,S-6-{[(1S,2S)-2-(5-methoxypyridin-2-yl)cyclopropyl]methoxy}-N-4-[(5-methyl-1,3,4-thiadiazol-2-yl)methyl]pyrimidine-2,4-diamine]",0.05
14,"Cc1nnc(CNc2nc(N)nc(OC[C@H]3C[C@@H]3c3ccc(Cl)cn3)c2F)s1 [Compound 3-19, 6-{[(1S,2S)-2-(5-chloropyridin-2-yl)cyclopropyl]methoxy}-5-fluoro-N-4-[(5-methyl-1,3,4-thiadiazol-2-yl)methyl]pyrimidine-2,4-diamine]",3.6
15,"COc1ccc([C@H]2C[C@@H]2COc2nc(N)nc(NCc3nnc(C)s3)c2F)nc1 [Compound 3-13, 5-fluoro-6-{[(1S,2S)-2-(5-methoxypyridin-2-yl)cyclopropyl]methoxy}-N-4-[(5-methyl-1,3,4-thiadiazol-2-yl)methyl]pyrimidine-2,4-diamine]",0.5
16,"COc1cccnc1[C@H]1C[C@@H]1COc1cc(NCc2cnn(C)c2)nc(C)n1 (stereo in doubt) [Compound 2-14, 6-{[2-(3-methoxypyridin-2-yl)cyclopropyl]methoxy}-2-methyl-N-[(1-methyl-1H-pyrazol-4-yl)methyl]pyrimidin-4-amine]",3.6
17,"Cc1nc(NCc2nnc(C3CC3)s2)cc(OC[C@H]2C[C@@H]2c2ccccn2)n1 [Compound 2-37, S,S-N-[(5-cyclopropyl-1,3,4-thiadiazol-2-yl)methyl]-2-methyl-6-[(2-pyridin-2-ylcyclopropyl)methoxy] pyrimidin-4-amine]",3.8
18,"Cc1nc(NCc2cnn(C)c2)cc(OCC2CC2c2ccccn2)n1 (stereo not shown) [Compound 1-2, 2-methyl-N-[(1-methyl-1H-pyrazol-4-yl)methyl]-6-[(2-pyridin-2-ylcyclopropyl)methoxy]pyrimidin-4-amine]",0.03
19,"Cc1nc(NCc2cc(C)on2)cc(OCC2CC2c2ccccn2)n1 (stereo not shown) [Compound 12-2, 2-methyl-N-((5-methylisoxazol-3-yl)methyl)-6-((2-(pyridin-2-yl)cyclopropyl)methoxy)-pyrimidin-4-amine]",1.1
